Earlier results, collected in patent US20260265270A1 (priority 2023, published 2026).

Legend:
[1] = tested on: IL-23 secreted by monocytes; conditions: after administration of the inhibitor
[2] = tested on: IL-2 secreted by T cells; conditions: after administration of the inhibitor

## COc1ccc(C[C@H](NC(=O)[C@H](C)NC(=O)CN2CCOCC2)C(=O)N[C@@H](Cc2ccccc2)C(=O)C2(C)CO2)cc1 (stereo in doubt) [ONX0914]
[1]
  IL-23 secreted by monocytes: decrease significantly
[2]
  IL-2 secreted by T cells: decrease significantly
